Source: PubChem BioAssay (NCI)
Where “and” joins values, the source holds several entries; their conditions need not be identical. Equal entries are not always repeated.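 Exposure lasted 48 hours, with cells grown in 96-well plates and compounds tested at five concentrations. GI50 = concentration required for 50% inhibition of growth. TGI: total growth inhibition.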

Columns and labels:
Test in all cases: inhibition of tumour cell growth, NCI panel, 48 h
[1] = system: TK-10 renal
[2] = system: U251 CNS
[3] = system: A498 renal
[4] = system: PC-3 prostate
[5] = system: A549 NSCLC
[6] = system: HOP-92 NSCLC
[7] = system: SW-620 colon
[8] = system: HL-60(TB) leukemia
[9] = system: ACHN renal
[10] = system: HOP-62 NSCLC

Compound | TGI [1] | TGI [2] | TGI [3] | TGI [4] | TGI [5] | TGI [6] | TGI [7] | TGI [8] | TGI [9] | TGI [10] | GI50 [1] | GI50 [3] | GI50 [4] | GI50 [10] | GI50 [6] | GI50 [7] | GI50 [9] | GI50 [2] | GI50 [5] | GI50 [8]
C=C/C(C)=C\CC1[C@](C)(O)CC[C@H]2C(C)(C)C(=O)CC[C@]12C (stereo partly drawn) | > 100 µM | > 100 µM | > 100 µM | > 100 µM | > 100 µM | > 100 µM | > 100 µM | 60 µM | > 100 µM | – | – | – | – | – | – | – | – | – | – | –
ClCCCc1ccccc1C1=NCCc2ccccc21 | > 100 µM | > 100 µM | > 100 µM | > 100 µM | > 100 µM | > 100 µM | > 100 µM | > 100 µM | > 100 µM | > 100 µM | – | – | – | – | – | – | – | – | – | –
CCCCC(=O)c1c(O)nc2sccn2c1=O | > 10 µM | > 10 µM | > 10 µM | > 10 µM | > 10 µM | – | > 10 µM | > 10 µM | > 10 µM | > 10 µM | – | – | – | – | – | – | – | – | – | –
O=c1[nH]nc(-c2ccccc2)n1/N=C\c1ccccc1 | > 100 µM | > 100 µM | > 100 µM | > 100 µM | > 100 µM | > 100 µM | > 100 µM | > 100 µM | > 100 µM | > 100 µM | – | – | – | – | – | – | – | – | – | –
O=[N+]([O-])c1ccc2sc(C=Nc3cnccn3)cc2c1 | > 100 µM | > 100 µM | 86 µM | > 100 µM | > 100 µM | > 100 µM | > 100 µM | 43.8 µM | > 100 µM | > 100 µM | – | – | – | – | – | – | – | – | – | –
O=C1NC(=O)C(C(CC(=O)c2ccc([N+](=O)[O-])cc2)c2ccccc2)C(=O)N1 (stereo not drawn) | 7.73 µM | > 100 µM | > 100 µM | > 100 µM | > 100 µM | > 100 µM | > 100 µM | > 100 µM | > 100 µM | > 100 µM | – | – | – | – | – | – | – | – | – | –
[Cl][Sn]([c]1ccccc1)([c]1ccccc1)[c]1ccccc1 | 0.604 µM and 0.283 µM | – | 0.523 µM and 0.159 µM | 1.02 µM | 0.41 µM and 0.176 µM and 0.0469 µM | – | 0.104 µM and 0.0229 µM | 0.899 µM and 0.0997 µM | – | 0.467 µM and 0.188 µM and 0.287 µM | 0.24 µM and 0.148 µM | 0.165 µM and 0.0456 µM | 0.327 µM | 0.21 µM and 0.0575 µM and 0.132 µM | 0.0939 µM and 0.122 µM and 0.0139 µM | 0.0303 µM and < 0.01 µM | 0.213 µM and 0.034 µM and 0.0215 µM | – | – | –
CSCSSC | > 100 µM | > 100 µM | > 100 µM | > 100 µM | > 100 µM | > 100 µM | > 100 µM | – | > 100 µM | > 100 µM | – | – | – | – | – | – | – | – | – | –
CC(=O)OCC1OC(SC2=N/C(=C\c3ccc(Br)s3)C(=O)N2CN2CCOCC2)C(OC(C)=O)C(OC(C)=O)C1OC(C)=O (stereo not drawn) | 34.8 µM | 32.2 µM | 46 µM | 54.5 µM | – | – | 38.9 µM | 12.8 µM | 46.2 µM | 56.6 µM | – | – | – | – | – | – | – | – | – | –
NCCCN(CCCN(C(=O)Nc1ccccc1)c1ccccc1)C(=O)Nc1ccccc1 | > 100 µM | > 100 µM | > 100 µM | > 100 µM | > 100 µM | 92 µM | 52.3 µM | 66.1 µM | > 100 µM | 67.5 µM | – | – | – | – | – | – | – | – | – | –
CCCC(=O)NC(Nc1ccc(S(=O)(=O)Nc2cc(C)on2)cc1)(C(=O)OCC)C(F)(F)F (stereo not drawn) | > 100 µM | > 100 µM | – | > 100 µM | > 100 µM | > 100 µM | > 100 µM | > 100 µM | > 100 µM | > 100 µM | – | – | – | – | – | – | – | – | – | –
O=C(N/N=C/C=C/c1ccc([N+](=O)[O-])o1)c1cc2ccccc2cc1O | 8.13 µM | 4.16 µM | 8.95 µM | 9.97 µM | 12.2 µM | 5.52 µM | 3.05 µM | 11.3 µM | 9.39 µM | 10.6 µM | 2.44 µM | 2.48 µM | 2.02 µM | 3.27 µM | 2.08 µM | 1.05 µM | 1.26 µM | 1.42 µM | 2.75 µM | 1.43 µM
O=S(Nc1ccccc1)c1ccc(N2CCOCC2)cc1 (stereo not drawn) | > 100 µM | > 100 µM | – | – | > 100 µM | – | > 100 µM | > 100 µM | > 100 µM | > 100 µM | – | – | – | – | – | – | – | – | – | –
COc1cc([C@@H]2c3cc4c(cc3[C@@H](c3c(O)cc(O)c5c3O[C@H](c3ccc(O)c(O)c3)[C@@H](O)C5)[C@H]3COC(=O)[C@H]23)OCO4)cc(OC)c1OC | 3.53 µM | 3.64 µM | 2.95 µM | 3.38 µM | > 100 µM | > 100 µM | > 100 µM | > 100 µM | 3.16 µM | 3.76 µM | – | – | – | – | – | – | – | – | – | –
CCNCCCn1c2c(c3ccc(Cl)cc3c1=O)C(=O)c1cc(OC)cnc1-2 | – | 1.73 µM | 4.38 µM | – | 2.31 µM | 27.2 µM | 1.76 µM | – | 1.35 µM | 1.43 µM | – | 0.358 µM | – | 0.122 µM | 3.01 µM | 0.0316 µM | 0.154 µM | 0.219 µM | 0.459 µM | –
CCOC(=O)CCC(NC(=O)OCc1ccccc1)C(=O)NC(CCC(=O)OCC)C(=O)NC(CCC(=O)OCC)C(=O)NC(CCC(=O)OCC)C(=O)NC(CCC(=O)OCC)C(=O)NC(CCC(=O)OCC)C(=O)NC(CCC(=O)OCC)C(=O)OCC (stereo not drawn) | > 100 µM | > 100 µM | > 100 µM | > 100 µM | > 100 µM | – | > 100 µM | > 100 µM | > 100 µM | > 100 µM | – | – | – | – | – | – | – | – | – | –
CCOP(=O)(/C=C\n1cc(C)c(=O)[nH]c1=O)OCC | > 100 µM | > 100 µM | > 100 µM | > 100 µM | > 100 µM | – | > 100 µM | > 100 µM | > 100 µM | > 100 µM | – | – | – | – | – | – | – | – | – | –
CSCCC(N)C(=O)NCCNc1ccc(NCCNC(=O)C(N)CCSC)c2c1C(=O)c1ccccc1C2=O (stereo not drawn) | 9.3 µM | 2.44 µM | 3.83 µM | 6.02 µM | 3.66 µM | 3.4 µM | 3.83 µM | 5.36 µM | 5.45 µM | 5.22 µM | – | – | – | – | – | – | – | – | – | –
Cc1ccc(S(=O)(=O)n2c3ccc(Br)cc3c3nc4ccccc4nc32)cc1 | > 100 µM | > 100 µM | > 100 µM | > 100 µM | > 100 µM | > 100 µM | > 100 µM | – | > 100 µM | > 100 µM | – | – | – | – | – | – | – | – | – | –
CCOc1ccc(N/C(=C(/C(Cl)=C(/Cl)N(CC)CC)[N+](=O)[O-])n2nnc3ccccc32)cc1 | – | 28.1 µM | 73.5 µM | 41.9 µM | > 100 µM | – | 27.3 µM | – | 47.9 µM | > 100 µM | – | – | – | – | – | – | – | – | – | –
